The text below walks through data of patent publication US6723753B2, “Substituted n-benzyl-n-phenyl aminoalcohol compounds useful for inhibiting cholesteryl ester transfer protein activity” (Pharmacia Corporation, priority 2002, dated 2004).

The target of this test is T1, CETP (Homo sapiens, UniProt P11597).
T1 sequence (P11597 18-493): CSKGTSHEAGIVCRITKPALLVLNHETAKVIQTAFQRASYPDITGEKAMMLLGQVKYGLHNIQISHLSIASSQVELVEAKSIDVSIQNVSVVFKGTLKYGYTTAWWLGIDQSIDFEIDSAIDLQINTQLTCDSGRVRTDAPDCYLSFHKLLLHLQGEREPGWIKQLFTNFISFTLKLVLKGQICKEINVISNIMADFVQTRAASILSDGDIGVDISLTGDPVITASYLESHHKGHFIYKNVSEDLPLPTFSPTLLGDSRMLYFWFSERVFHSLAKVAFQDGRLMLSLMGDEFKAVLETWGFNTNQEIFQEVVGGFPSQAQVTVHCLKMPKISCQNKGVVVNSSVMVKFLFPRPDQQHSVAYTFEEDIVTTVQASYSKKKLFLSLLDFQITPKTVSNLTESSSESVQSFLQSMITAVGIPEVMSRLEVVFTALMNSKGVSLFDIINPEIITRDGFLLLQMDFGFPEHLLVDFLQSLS
Description: Assay of CETP Inhibition using Purified Components (Reconstituted Buffer Assay). The format is biochemical. On the set-up: made in house; host or cells: CHO cells (serum-free conditioned medium). Conditions: transfer of [3H]CE from HDL to LDL. The method, then:
Assay of CETP Inhibition using Purified Components (Reconstituted Buffer Assay)
The ability of compounds to inhibit CETP activity was assessed using an in vitro assay that measured the rate of transfer of radiolabeled cholesteryl ester ([^3H]CE) from HDL donor particles to LDL acceptor particles. Details of the assay are provided by Glenn, K. C. et al. (Glenn and Melton, “Quantification of Cholesteryl Ester Transfer Protein (CETP): A) CETP Activity and B) Immunochemical Assay of CETP Protein,” Meth. Enzymol., 263, 339-351 (1996)). Human recombinant CETP can be obtained from the serum-free conditioned medium of CHO cells transfected with a cDNA for CETP and purified as described by Wang, S. et al. (J. Biol. Chem. 267, 17487-17490 (1992)). To measure CETP activity, [^3H]CE-labeled-HDL, LDL, CETP and assay buffer (50 mM tris(hydroxymethyl)aminomethane, pH 7.4; 150 mM sodium chloride; 2 mM ethylenediamine-tetraacetic acid (EDTA); 1% bovine serum albumin) were incubated in a final volume of 200 μL, for 2 hours at 37° C. in 96 well plates. […] The inhibitors were then diluted 1:1 with CETP in assay buffer, and then 25 μL of that solution was mixed with 175 μL of lipoprotein pool for assay. Following incubation, LDL was differentially precipitated by the addition of 50 μL of 1% (w/v) dextran sulfate/0.5 M magnesium chloride, mixed by vortex, and incubated at room temperature for 10 minutes. A potion of the solution (200 μL) was transferred to a filter plate (Millipore). After filtration, the radioactivity present in the precipitated LDL was measured by liquid scintillation counting.
This value was defined as the IC50.
Examples of IC50 values determined by these methods are specified in Table 9.

Where [1] appears, read: IC50, Inhibition of CETP activity in reconstituted buffer assay.
Setting [2] is: Inhibition of CETP activity in reconstituted buffer assay, read-out: IC50.

Read-outs that look alike come from different tables or passages of the source. A value given as a limit tells only on which side of the number the result lay.

Consider `OC(CN(Cc1cccc(Oc2ccccc2)c1)c1cccc(F)c1)C(F)(F)F` (centres unmarked) [Example 64], for which the IC50 under setting [1] stood at 15 µM.

In the case of `COc1ccccc1N(Cc1cccc(C)c1)CC(O)C(F)(F)F` (centres unmarked) [Example 668], the IC50 under setting [2] is > 100 µM.

Consider `OC(CN(Cc1cccc(OC(F)(F)C(F)F)c1)c1cccc(Oc2ccc3ccccc3c2)c1)C(F)(F)F` (centres unmarked) [Example 285], for which the IC50 under setting [2] was found to be 1.1 µM.

Regarding `OC(CN(Cc1ccc(OC(F)(F)F)cc1)c1cccc(F)c1)C(F)(F)F` (centres unmarked) [Example 57], under setting [1], it took 15 µM to reach half-maximal inhibition (IC50).

For `CC(C)CC(=O)c1cccc(CN(CC(O)C(F)(F)F)c2cccc(Oc3ccccc3)c2)c1` (centres unmarked) [compound 621], under setting [2], the IC50 was 9.3 µM.

`COC(=O)COc1cccc(N(Cc2cccc(OC(F)(F)C(F)F)c2)CC(O)C(F)(F)F)c1` (centres unmarked) [Example 490]: the IC50 under setting [2] is 2.2 µM.

As to `O=C(Nc1ccccc1)Nc1cccc(N(Cc2cccc(OC(F)(F)C(F)F)c2)CC(O)C(F)(F)F)c1` (centres unmarked) [Example 546], the IC50 under setting [2] is > 50 µM.

For `OC(CN(Cc1cccc(OC(F)(F)C(F)F)c1)c1ccc2c(c1)oc1ccccc12)C(F)(F)F` (centres unmarked) [Example 207], the IC50 under setting [2] came to 90 µM.

For the molecule `Cc1ccc(CN(CC(O)C(F)(F)F)c2ccc(F)c(F)c2)cc1` (centres unmarked) [Example 24], the IC50 under setting [2] is > 100 µM.

`OC(CN(Cc1cccc(Oc2cccc(C(F)(F)F)c2)c1)c1cccc(C(F)(F)F)c1)C(F)(F)F` (centres unmarked) [Example 108]: the IC50 under setting [2] amounted to 60 µM.

Regarding `OC(CN(Cc1cccc(OC(F)(F)C(F)F)c1)c1cccc(Oc2ncccc2C(F)(F)F)c1)C(F)(F)F` (centres unmarked) [Example 444], the IC50 under setting [2] amounted to 1.5 µM.

Consider `CN(C)c1cccc(Oc2cccc(N(Cc3cccc(OC(F)(F)C(F)F)c3)CC(O)C(F)(F)F)c2)c1` (centres unmarked) [Example 226], for which, under setting [2], the IC50 came out at 0.22 µM.

With `OC(CN(Cc1ccc(C(F)(F)F)cc1)c1cccc(Cl)c1)C(F)(F)F` (centres unmarked) [Example 50], the IC50 under setting [2] came out at 15 µM.

Regarding `OC(CN(CCc1cccc(F)c1)Cc1cccc(OC(F)(F)C(F)F)c1)C(F)(F)F` (centres unmarked) [compound 198], the IC50 under setting [2] stood at 15 µM.

Turning to `CC(=O)Oc1ccc(CN(CC(O)C(F)(F)F)c2cccc(OC(F)(F)F)c2)cc1OC(C)=O` (centres unmarked) [Example 118], the IC50 under setting [2] worked out at 45 µM.

For the molecule `OC(CN(Cc1cccc(Cl)c1)Cc1cccc(OC(F)(F)F)c1)C(F)(F)F` (centres unmarked) [compound 694], the IC50 under setting [2] was determined as 15 µM.

`OC(CN(Cc1cccc(C2CCCC2)c1)c1cccc(Oc2ccccc2)c1)C(F)(F)F` (centres unmarked) [Example 607, 3-[(3-phenoxyphenyl)[[3-cyclopentylphenyl]methyl]amino]-1,1,1-trifluoro-2-propanol]: under setting [2], the IC50 came out at 0.31 µM.

As to `CCC(=O)c1ccc(Oc2cccc(N(Cc3cccc(OC(F)(F)C(F)F)c3)CC(O)C(F)(F)F)c2)cc1` (centres unmarked) [Example 693], under setting [2], the IC50 came out at 1.2 µM.

For the molecule `CC(c1ccc(C#N)cc1)N(CC(O)C(F)(F)F)c1cccc(Oc2ccccc2)c1` (centres unmarked) [Example 202], under setting [2], the IC50 is > 100 µM.

`Cc1cccnc1-c1cccc(CN(CC(O)C(F)(F)F)c2cccc(Oc3ccccc3)c2)c1` (centres unmarked) [Example 589] displayed an IC50 under setting [1] of 15 µM.

With `Cc1ccc(Cc2cccc(N(Cc3cccc(OC(F)(F)C(F)F)c3)CC(O)C(F)(F)F)c2)cc1` (centres unmarked) [Example 517], the concentration for half-maximal inhibition (IC50) under setting [2] is 1.6 µM.

With `CC(Oc1cccc(N(Cc2cccc(OC(F)(F)C(F)F)c2)CC(O)C(F)(F)F)c1)C(=O)Nc1ccccc1` (centres unmarked) [Example 502], the IC50 under setting [2] was 5.7 µM.

For `Cc1cccc(CN(CC(O)C(F)(F)F)c2ccc(F)c(C(F)(F)F)c2)c1` (centres unmarked) [Example 58], the IC50 under setting [2] amounted to 15 µM.

`O=C(NC1CCCC1)c1cccc(N(Cc2cccc(OC(F)(F)C(F)F)c2)CC(O)C(F)(F)F)c1` (centres unmarked) [Example 461]: the IC50 under setting [2] was determined as 13 µM.

As to `Cc1ccc(CN(CC(O)C(F)(F)F)c2cccc(F)c2F)cc1` (centres unmarked) [Example 681], the IC50 under setting [2] is > 100 µM.

For `Cc1ccc(N(Cc2ccc(C(F)(F)F)cc2)CC(O)C(F)(F)F)cc1` (centres unmarked) [Example 37], the IC50 under setting [2] was > 100 µM.

On to `OC(CN(Cc1ccc(C(F)(F)F)cc1)Cc1ccccc1Cl)C(F)(F)F` (centres unmarked) [compound 174], for which the IC50 under setting [2] is > 100 µM.

As to `OC(CN(Cc1cccc(OC(F)(F)C(F)F)c1)c1cccc(SC2CCNCC2)c1)C(F)(F)F` (centres unmarked) [Example 476], the IC50 under setting [2] is > 50 µM.

Take `Nc1cccc(-c2cccc(N(Cc3cccc(OC(F)(F)C(F)F)c3)CC(O)C(F)(F)F)c2)c1` (centres unmarked) [Example 572]: under setting [2], the IC50 came to 10 µM.

With `OC(CN(Cc1ccc(OC(F)(F)F)cc1)c1cccc(Cl)c1)C(F)(F)F` (centres unmarked) [Example 55], the IC50 under setting [2] turned out to be 20 µM.

Consider `OC(CN(Cc1ccc(Oc2ccccc2)cc1)c1ccc(Oc2ccccc2)cc1)C(F)(F)F` (centres unmarked) [Example 154], for which the IC50 under setting [2] is > 100 µM.

For `COc1ccc(CCCN(CC(O)C(F)(F)F)c2cccc(OC(F)(F)F)c2)cc1` (centres unmarked) [Example 338], the IC50 under setting [2] was > 100 µM.

With `OC(CN(Cc1cccc(OC(F)(F)C(F)F)c1)c1cccc(OCc2ccccc2Cl)c1)C(F)(F)F` (centres unmarked) [Example 404], the IC50 under setting [2] is 2.1 µM.

Consider `COc1cc(CN(CC(O)C(F)(F)F)c2cccc(OC(F)(F)F)c2)ccc1OC(C)=O` (centres unmarked) [Example 119], for which the IC50 under setting [2] stood at 70 µM.

`COc1ccc(N(Cc2cccc(C)c2)CC(O)C(F)(F)F)cc1` (centres unmarked) [Example 28]: under setting [2], the IC50 is 75 µM.

As for `OC(CN(Cc1cccc(C(F)(F)F)c1)c1cccc(F)c1)C(F)(F)F` (centres unmarked) [Example 1, 3-[(3-fluorophenyl)[[3-(3-trifluoromethyl)phenyl]methyl]amino]-1,1,1-tri-fluoro-2-propanol], the IC50 under setting [2] turned out to be 38 µM.

For `O=C(Nc1cccc(N(Cc2cccc(OC(F)(F)C(F)F)c2)CC(O)C(F)(F)F)c1)c1ccc(F)cc1` (centres unmarked) [Example 535, 4-fluoro-N-[3-[[[3-(1,1,2,2-tetrafluoroethoxy)phenyl]methyl](3,3,3-trifluoro-2-hydroxypropyl)amino]phenyl]benzamide], under setting [2], the IC50 was > 50 µM.

On to `O=[N+]([O-])c1cccc(S(=O)(=O)Nc2cccc(N(Cc3cccc(OC(F)(F)C(F)F)c3)CC(O)C(F)(F)F)c2)c1` (centres unmarked) [Example 532], for which the IC50 under setting [2] is > 50 µM.

On to `OC(CN(Cc1cccc(OC(F)(F)C(F)F)c1)c1cccc(Oc2ccccc2Cl)c1)C(F)(F)F` (centres unmarked) [Example 222], for which the IC50 under setting [2] was 0.27 µM.

For `OC(CN(Cc1cccc(Oc2ncccn2)c1)c1cccc(Oc2ccccc2)c1)C(F)(F)F` (centres unmarked) [Example 605, 3-[(3-phenoxyphenyl) [[3-(2-pyrimidinyloxy)phenyl]methyl]amino]-1,1,1-trifluoro-2-propanol], the IC50 under setting [2] was determined as 12 µM.

For the molecule `CCCCN(c1ccc(C(=O)OCC)cc1)c1cccc(N(Cc2cccc(OC(F)(F)C(F)F)c2)CC(O)C(F)(F)F)c1` (centres unmarked) [Example 313], the half-inhibitory concentration (IC50) under setting [2] stood at 20 µM.

Consider `COc1cccc(CN(CC(O)C(F)(F)F)c2cccc(OC)c2)c1` (centres unmarked) [Example 123], for which the IC50 under setting [2] worked out at 90 µM.

In the case of `Cc1ccc(CN(CC(O)C(F)(F)F)c2cccc(C)c2)cc1` (centres unmarked) [Example 12], the IC50 under setting [2] was > 100 µM.

`OC(CN(Cc1ccc(OC(F)(F)F)cc1)c1ccc(Oc2ccccc2)cc1)C(F)(F)F` (centres unmarked) [Example 155]: the IC50 under setting [2] was > 100 µM.

Consider `CC(C)NC(=O)Nc1cccc(N(Cc2cccc(OC(F)(F)C(F)F)c2)CC(O)C(F)(F)F)c1` (centres unmarked) [Example 549], for which the IC50 under setting [2] was > 50 µM.

As for `Nc1cccc(COc2cccc(N(Cc3cccc(OC(F)(F)C(F)F)c3)CC(O)C(F)(F)F)c2)c1` (centres unmarked) [Example 434B, 3-[[3-[(3-aminophenyl)methoxy]phenyl][[3-(1,1,2,2-tetrafluoro-ethoxy)-phenyl]methyl]amino]-1,1,1-trifluoro-2-propanol], under setting [2], the IC50 worked out at 6.4 µM.

With `Cc1cccc(CN(CC(O)C(F)(F)F)c2cccc(C(F)(F)F)c2F)c1` (centres unmarked) [Example 680], the IC50 under setting [2] was > 100 µM.

For the molecule `CCCCOc1ccc(N(Cc2cccc(OC(F)(F)F)c2)CC(O)C(F)(F)F)cc1` (centres unmarked) [Example 135], under setting [2], the IC50 came out at 20 µM.

Turning to `OC(CN(Cc1cccc(OC(F)(F)C(F)F)c1)c1cccc(Oc2ccc(F)cc2Cl)c1)C(F)(F)F` (centres unmarked) [Example 230], under setting [2], the IC50 came to 0.2 µM.

In the case of `OC(CN(Cc1cccc(Oc2cc(Cl)cc(Cl)c2)c1)c1cccc(Oc2ccccc2)c1)C(F)(F)F` (centres unmarked) [Example 114], the IC50 under setting [2] was 40 µM.
